{"source": "patent US20110178092A1", "about": "“HIV-1 Protease Inhibitors” (priority 2005, published 2011)"}
{"target": "T1, wild type HIV-1 protease (Q7K) (Human immunodeficiency virus type 1 group M subtype B, UniProt P04585, Q495K)", "T1 construct": "Wide type HIV-1 protease (Q7K)", "test": "FRET HIV-1 protease inhibition assay, wild type", "assay_type": "biochemical", "settings": "not given", "procedure": "(§1) Biological Evaluation of Selected Compounds of the Invention. HIV protease inhibitor activities were determined by fluorescence resonance energy transfer (FRET) method. […] Inhibitor binding dissociation constant (Ki value) was obtained by nonlinear regression fitting to the plot of initial velocity as a function of inhibitor concentration based on Morrison equation.\n(§2) The energy transfer donor (EDANS) and acceptor (DABCYL) were labeled at its two ends respectively to perform FRET. Fluorescence measurements were carried out on PTI fluorescence spectrophotometer (Photon Technology International) at 30° C. Excitation and emission wavelengths were set at 340 nm and 490 nm, respectively. Each reaction was recorded for about 10 min. Wide type HIV-1 protease (Q7K) and its MDR mutants M1 (L10I, G48V, I54V, L63P, V82A), M2 (D30N, L63P, N88D), and M3 (L10I, L63P, A71V, G73S, I84V, L90M) were desalted through PD-10 columns (Amersham Biosciences). Sodium Acetate (20 mM, pH 5) was used as elution buffer. Apparent protease concentrations were around 50 nM estimated by UV spectrophotometer (Shimadzu) at 280 nm. All inhibitors were dissolved in DMSO and diluted to appropriate concentrations. Protease (2 μL) and inhibitor (2 μL) or DMSO were mixed and incubated for 20-30 min at room temperature before initialing substrate cleavage reaction. Throughout this work, 150 μL of 1 μM substrate was used. Substrate buffer is composite of 0.1 M sodium acetate, 1 M sodium chloride, 1 mM ethylenediaminetetraacetic acid (EDTA), 1 mM dithiothreitol (DTT), 2% dimethylsulfoxide (DMSO) and 1 mg/mL bovine serum albumin (BSA) with an adjusted pH 4.7. Inhibitor binding dissociation constant (Ki) was obtained by nonlinear regression fitting (GraFit 5, Erithacus software) to the plot of initial velocity as a function of inhibitor concentrations based on Morrison equation.", "units": {"Ki": "nM"}}
{"smiles": "COc1ccc(S(=O)(=O)N(CC(C)C)C[C@@H](O)[C@H](Cc2ccccc2)NC(=O)[C@H]2CN(c3ccccc3)C(=O)O2)cc1", "note": "[20a, (5R)—N-[(1S,2R)-1-Benzyl-2-hydroxy-3-[isobutyl[(4-methoxyphenyl)sulfonyl]amino]-propyl]-2-oxo-3-phenyloxazolidine-S-carboxamide]", "Ki": 10.7}
{"smiles": "COc1ccc(S(=O)(=O)N(CC(C)C)C[C@@H](O)[C@H](Cc2ccccc2)NC(=O)[C@@H]2CN(c3cccc(F)c3)C(=O)O2)cc1", "note": "[21b, (5S)—N-[(1S,2R)-1-Benzyl-2-hydroxy-3-[isobutyl[(4-methoxyphenyl)sulfonyl]amino]-propyl]-3-(3-fluorophenyl)-2-oxo-oxazolidine-S-carboxamide]", "Ki": 0.08}
{"smiles": "COc1ccc(S(=O)(=O)N(CC(C)C)C[C@@H](O)[C@H](Cc2ccccc2)NC(=O)[C@@H]2CN(c3cccc(C(F)(F)F)c3)C(=O)O2)cc1", "note": "[21d, (5S)—N-[(1S,2R)-1-Benzyl-2-hydroxy-3-[isobutyl[(4-methoxyphenyl)sulfonyl]amino]-propyl]-2-oxo-3-[(3-trifluoromethyl)phenyl]oxazolidine-S-carboxamide]", "Ki": 0.006}
{"smiles": "COc1ccc(S(=O)(=O)N(CC(C)C)C[C@@H](O)[C@H](Cc2ccccc2)NC(=O)[C@@H]2CN(c3cccc(OC)c3)C(=O)O2)cc1", "note": "[21g, (5S)—N-[(1S,2R)-1-Benzyl-2-hydroxy-3-[isobutyl[(4-methoxyphenyl)sulfonyl]-amino]propyl]-3-(3-methoxyphenyl)-2-oxo-oxazolidine-S-carboxamide]", "Ki": 0.045}
{"smiles": "CC(C)CN(C[C@@H](O)[C@H](Cc1ccccc1)NC(=O)[C@H]1CN(c2ccccc2)C(=O)O1)S(=O)(=O)c1ccc(N)cc1", "note": "[24a, (5R)—N-[(1S,2R)-3-[[(4-Aminophenyl)sulfonyl](isobutyl)amino]-1-benzyl-2-hydroxypropyl]-2-oxo-3-phenyloxazolidine-S-carboxamide]", "Ki": 37.4}
{"smiles": "CC(=O)c1cccc(N2C[C@@H](C(=O)N[C@@H](Cc3ccccc3)[C@H](O)CN(CC(C)C)S(=O)(=O)c3ccc(N)cc3)OC2=O)c1", "note": "[25e, (5S)-3-(3-Acetylphenyl)-N-[(1S,2R)-3-[[(4-aminophenyl)sulfonyl](isobutyl)amino]-1-benzyl-2-hydroxypropyl]-2-oxo-oxazolidine-S-carboxamide]", "Ki": 0.032}
{"smiles": "CC(=O)c1cccc(N2C[C@@H](C(=O)N[C@@H](Cc3ccccc3)[C@H](O)CN(CC(C)C)S(=O)(=O)c3ccc4c(c3)OCO4)OC2=O)c1", "note": "[26e, (5S)-3-(3-Acetylphenyl)-N-[(1S,2R)-3-[[(benzo-[1,3]-dioxole-5-sulfonyl)](isobutyl)amino]-1-benzyl-2-hydroxypropyl]-2-oxo-oxazolidine-S-carboxamide]", "Ki": 0.006}
{"target": "T1, wild type HIV-1 protease (Q7K)", "test": "FRET HIV-1 protease inhibition assay, wild type", "assay_type": "biochemical", "settings": "wild type HIV-1 protease (Q7K), FRET, in triplicate; read-out: Ki", "procedure": "as §1, §2", "units": {"Ki": "nM"}}
{"smiles": "COc1ccc(S(=O)(=O)N(CC(C)C)C[C@@H](O)[C@H](Cc2ccccc2)NC(=O)[C@@H]2CN(c3ccccc3)C(=O)O2)cc1", "note": "[21a, (5S)—N-[(1S,2R)-1-Benzyl-2-hydroxy-3-[isobutyl[(4-methoxyphenyl)sulfonyl]amino]propyl]-2-oxo-3-phenyloxazolidine-S-carboxamide]", "Ki": 0.1}
{"smiles": "COc1ccc(S(=O)(=O)N(CC(C)C)C[C@@H](O)[C@H](Cc2ccccc2)NC(=O)[C@@H]2CN(c3ccc(F)c(F)c3)C(=O)O2)cc1", "note": "[21c, (5S)—N-[(1S,2R)-1-Benzyl-2-hydroxy-3-[isobutyl[(4-methoxyphenyl)sulfonyl]amino]-propyl]-3-(3,4-difluorophenyl)-2-oxo-oxazolidinone-S-carboxamide]", "Ki": 0.066}
{"smiles": "CC(C)CN(C[C@@H](O)[C@H](Cc1ccccc1)NC(=O)[C@@H]1CN(c2ccccc2)C(=O)O1)S(=O)(=O)c1ccc(N)cc1", "note": "[25a, (5S)—N-[(1S,2R)-3-[[(4-Aminophenyl)sulfonyl](isobutyl)amino]-1-benzyl-2-hydroxypropyl]-2-oxo-3-phenyloxazolidine-S-carboxamide]", "Ki": 0.53}
{"smiles": "CC(C)CN(C[C@@H](O)[C@H](Cc1ccccc1)NC(=O)[C@@H]1CN(c2cccc(C(F)(F)F)c2)C(=O)O1)S(=O)(=O)c1ccc(N)cc1", "note": "[25d, (5S)—N-[(1S,2R)-3-[[(4-Aminophenyl)sulfonyl](isobutyl)amino]-1-benzyl-2-hydroxypropyl]-2-oxo-3-[(3-trifluoromethyl)phenyl]oxazolidine-S-carboxamide]", "Ki": 0.042}
{"smiles": "CC(C)CN(C[C@@H](O)[C@H](Cc1ccccc1)NC(=O)[C@@H]1CN(c2cccc(C(F)(F)F)c2)C(=O)O1)S(=O)(=O)c1ccc2c(c1)OCO2", "note": "[26d, (5S)—N-[(1S,2R)-3-[[(Benzo-[1,3]-dioxole-S-sulfonyl)](isobutyl)amino]-1-benzyl-2-hydroxypropyl]-2-oxo-3-[(3-trifluoromethyl)phenyl]oxazolidine-S-carboxamide]", "Ki": 0.016}
{"smiles": "CC(=O)c1ccc(N2C[C@@H](C(=O)N[C@@H](Cc3ccccc3)[C@H](O)CN(CC(C)C)S(=O)(=O)c3ccc4c(c3)OCO4)OC2=O)cc1", "note": "[26f, (5S)-3-(4-Acetylphenyl)-N-[(1S,2R)-3-[[(benzo-[1,3]-dioxole-S-sulfonyl)](isobutyl)-amino]-1-benzyl-2-hydroxypropyl]-2-oxo-oxazolidine-S-carboxamide]", "Ki": 0.016}
{"smiles": "COc1ccc(S(=O)(=O)N(CC(C)C)C[C@@H](O)[C@H](Cc2ccccc2)NC(=O)[C@@H]2CN(c3cccc(F)c3)C(=O)O2)cc1F", "note": "[27b, (5S)—N-[(1S,2R)-1-Benzyl-3-[[(3-fluoro-4-methoxyphenyl)sulfonyl](isobutyl)amino]-2-hydroxypropyl]-3-(3-fluorophenyl)-2-oxo-oxazolidine-S-carboxamide]", "Ki": 0.07}
{"smiles": "COc1ccc(S(=O)(=O)N(CC(C)C)C[C@@H](O)[C@H](Cc2ccccc2)NC(=O)[C@@H]2CN(c3ccc(F)c(F)c3)C(=O)O2)cc1F", "note": "[27c, (5S)—N-[(1S,2R)-1-Benzyl-3-[[(3-fluoro-4-methoxyphenyl)sulfonyl](isobutyl)amino]-2-hydroxypropyl]-3-(3,4-difluorophenyl)-2-oxo-oxazolidine-S-carboxamide]", "Ki": 0.343}
{"smiles": "COc1ccc(S(=O)(=O)N(CC(C)C)C[C@@H](O)[C@H](Cc2ccccc2)NC(=O)[C@@H]2CN(c3cccc(C(F)(F)F)c3)C(=O)O2)cc1F", "note": "[27d, (5S)—N-[(1S,2R)-1-Benzyl-3-[[(3-fluoro-4-methoxyphenyl)sulfonyl](isobutyl)amino]-2-hydroxypropyl]-2-oxo-3-[(3-trifluoromethyl)phenyl)oxazolidine-S-carboxamide]", "Ki": 0.072}
{"smiles": "COc1ccc(S(=O)(=O)N(CC(C)C)C[C@@H](O)[C@H](Cc2ccccc2)NC(=O)[C@@H]2CN(c3ccc(C(C)=O)cc3)C(=O)O2)cc1F", "note": "[27f, (S)-3-(4-Acetylphenyl)-N-[(1S,2R)-1-Benzyl-3-[[(3-fluoro-4-methoxyphenyl)-sulfonyl](isobutyl)amino]-2-hydroxypropyl]-2-oxo-oxazolidine-S-carboxamide]", "Ki": 0.08}
{"target": "T1, wild type HIV-1 protease (Q7K)", "test": "FRET HIV-1 protease inhibition assay, wild type", "assay_type": "biochemical", "settings": "wild type HIV-1 protease, qualitative statement", "procedure": "as §1, §2"}
{"smiles": "CC(C)CN(C[C@@H](O)[C@H](Cc1ccccc1)NC(=O)[C@@H]1CN(c2cccc(F)c2)C(=O)O1)S(=O)(=O)c1ccc(N)cc1", "note": "[25b, (5S)—N-[(1S,2R)-3-[[(4-Aminophenyl)sulfonyl](isobutyl)amino]-1-benzyl-2-hydroxypropyl]-3-(3-fluorophenyl)-2-oxo-oxazolidine-S-carboxamide]", "inhibitory activity against wild type HIV-1 protease (in words)": "relatively small improvement in activities compared to 25a"}
{"smiles": "CC(C)CN(C[C@@H](O)[C@H](Cc1ccccc1)NC(=O)[C@@H]1CN(c2ccc(F)c(F)c2)C(=O)O1)S(=O)(=O)c1ccc(N)cc1", "note": "[25c, (5S)—N-[(1S,2R)-3-[[(4-Aminophenyl)sulfonyl](isobutyl)amino]-1-benzyl-2-hydroxypropyl]-3-(3,4-difluorophenyl)-2-oxo-oxazolidine-S-carboxamide]", "inhibitory activity against wild type HIV-1 protease (in words)": "relatively small improvement in activities compared to 25a"}
{"smiles": "CC(=O)c1ccc(N2C[C@@H](C(=O)N[C@@H](Cc3ccccc3)[C@H](O)CN(CC(C)C)S(=O)(=O)c3ccc(N)cc3)OC2=O)cc1", "note": "[25f, (5S)-3-(4-Acetylphenyl)-N-[(1S,2R)-3-[[(4-aminophenyl)sulfonyl](isobutyl)amino]-1-benzyl-2-hydroxypropyl]-2-oxo-oxazolidine-S-carboxamide]", "inhibitory activity against wild type HIV-1 protease (in words)": "relatively small improvement in activities compared to 25a"}
{"smiles": "COc1cccc(S(=O)(=O)N(CC(C)C)C[C@@H](O)[C@H](Cc2ccccc2)NC(=O)[C@@H]2CN(c3ccccc3)C(=O)O2)c1", "note": "[29a, (5S)—N-[(1S,2R)-1-Benzyl-2-hydroxy-3-[isobutyl[(3-methoxyphenyl)sulfonyl]amino]-propyl]-2-oxo-3-phenyloxazolidine-S-carboxamide]", "inhibitory activity against wild type HIV-1 protease (in words)": "significant loss of protease inhibitory activity"}
{"smiles": "COc1cccc(S(=O)(=O)N(CC(C)C)C[C@@H](O)[C@H](Cc2ccccc2)NC(=O)[C@@H]2CN(c3ccc(C(C)=O)cc3)C(=O)O2)c1", "note": "[29f, (5S)-3-(4-Acetylphenyl)-N-[(1S,2R)-1-benzyl-2-hydroxy-3-[isobutyl[(3-methoxyphenyl)-sulfonyl]amino]propyl]-2-oxo-oxazolidine-S-carboxamide]", "inhibitory activity against wild type HIV-1 protease (in words)": "significant loss of protease inhibitory activity"}
